Laboratory results from article PMC9057582, “HIF inhibitor 32-134D eradicates murine hepatocellular carcinoma in combination with anti-PD1 therapy” (The Journal of Clinical Investigation, 2022).

How the values were obtained:
[1] = system: Hepa1-6 tumor immune microenvironment; assay: Flow cytometry of immune cell populations in Hepa1-6 tumors; type: in vivo, C57L mice; conditions: 40 mg/kg daily ip, 8 days
Protocol: To analyze the mechanism by which 32-134D increased the response to anti-PD1 therapy, Hepa1-6 tumor–bearing mice were treated with 32-134D or vehicle, and immune cell populations in well-established 200-mm^3 tumors were analyzed by flow cytometry (Supplemental Figure 8). […] The pivotal role of CD8^+ T cells and NK cells in antitumor immunity is underscored by the fact that expression of CD8A and CD8B mRNA as well as KLRK1 and KLRB1 mRNA (encoding the human homologs of CD314 and NK1.1, respectively) in HCC is associated with patient survival (P < 0.05; Supplemental Table 2).
Figure 5 Effect of 32-134D on the tumor immune microenvironment. (A–H) C57L mice were injected with Hepa1-6 HCC cells subcutaneously and when tumors reached a volume of 200 mm^3, the mice were treated with vehicle or 32-134D (40 mg/kg) by daily intraperitoneal injection for 8 days. Single-cell suspensions prepared from each tumor were analyzed by flow cytometry using fluorescent antibodies against the indicated cell surface proteins. The percentage of cells positive for the indicated markers is shown (mean ± SEM, n = 6). *P < 0.05 (Mann-Whitney test). M-MDSCs and G-MDSCs, monocytic and granulocytic myeloid-derived suppressor cells; TAMs, tumor-associated macrophages.
Hepa1-6 tumors were digested with collagenase (1 mg/mL) at 37°C for 30 minutes and the resulting single-cell suspension was passed through a 70-μm cell strainer and washed twice with cold PBS. Cells were resuspended in FC buffer for subsequent flow cytometry analysis. Cells were stained with at least 2 antibodies (see Supplemental Table 6) to capture different immune cell populations. G-MDSCs: Alexa Fluor 405–conjugated anti-CD11b and FITC-conjugated anti-Ly6G; M-MDSCs: Alexa Fluor 405–conjugated anti-CD11b and FITC-conjugated anti-Ly6C; TAMs: Alexa Fluor 405–conjugated anti-CD11b and allophycocyanin-conjugated (APC-conjugated) anti-F4/80; dendritic cells: Alexa Fluor 405–conjugated anti-CD11b, FITC-conjugated anti-CD11c, and APC-conjugated anti-F4/80; cytotoxic NK cells: FITC-conjugated anti-CD3, APC-conjugated anti-NK1.1, and Alexa Fluor 405–conjugated anti-CD314; effector T cells: phycoerythrin-conjugated (PE-conjugated) anti-CD8A and Alexa Fluor 405–conjugated anti–IFN-γ; activated T cells: PE-conjugated anti-CD8A, FITC-conjugated anti-CD69, and APC-conjugated anti-CD44; regulatory T cells: APC-conjugated anti-CD4, FITC-conjugated anti-CD25, and PE-conjugated anti-FOXP3. Live cells were gated using side-scatter and forward-scatter plots, and data were acquired using FACSDiva software (Becton Dickinson). Cell populations were gated using unstained control and single stained cell samples. Data analysis was performed using FlowJo software.
Supplemental Figure 8. Effect of 32-134D on Hepa1-6 tumor immune cell microenvironment. […]

[2] = system: HIF target genes in Hep3B cells; assay: RT-qPCR of endogenous HIF target gene expression in Hep3B cells; type: cell-based, human
Excerpt: Based on this hit, we synthesized analogs in which either halogen substitutions to the indole groups were altered or the central thiazole was replaced by imidazole, isoxazole, oxadiazole, oxazole, pyrazinone, pyridazine, pyrazine, pyrazole, pyridine, thiadiazole, triazine, or triazole. […] We focused on analyzing the effect of the bis-bromoindole thiazole 32-134D and the bis-indole thiadiazole 33-063 on endogenous HIF target gene expression in Hep3B cells. […] For comparison, we tested the effect of PT2385, which inhibited EPO, NDRG1, ANGPTL4, and VEGFA expression but had no effect on CA9, which is consistent with its HIF-2–selective mechanism of action ([44]). None of the compounds had any effect on RPL13A expression, which is neither induced by hypoxia nor regulated by HIFs (Supplemental Figure 2D).
Human Hep3B and mouse Hepa1-6 cells were purchased from ATCC and grown in high-glucose (4.5 mg/mL) Dulbecco’s modified Eagle’s medium supplemented with 10% (vol/vol) fetal bovine serum and 1% penicillin/streptomycin at 37°C in a 5% CO2/95% air incubator (Supplemental Table 6). Human cell line identity was authenticated by analysis of short tandem repeats, and all cell lines were maintained mycoplasma free, using PCR-based assays conducted at the Johns Hopkins University Genetic Resources Core Facility (JHU GRCF). Cells were subjected to hypoxia in a controlled atmosphere chamber (PLAS Labs) with ambient gas mixture containing 1% O2 and 5% CO2.
RNA was extracted using TRIzol Reagent. Quantitative real-time PCR was conducted using SYBR Green PCR Master Mix and reactions were run using a Bio-Rad thermal cycler. Primer sequences and reagent sources are listed in Supplemental Table 5. The mRNA expression of target genes was normalized to the expression of 18S rRNA and the fold change (FC) was calculated based on the threshold cycle (Ct) as FC = 2^–Δ(ΔCt), where ΔCt = Cttarget gene – Ct18S rRNA and Δ(ΔCt) = ΔCttreatment – ΔCtcontrol. For RNA-seq, total RNA was isolated and treated with DNase (Qiagen). The JHU GRCF High-Throughput Sequencing facility prepared libraries and performed RNA-seq. The RNA-seq data were processed and interpreted using Genialis Expressions software (https://www.genialis.com/expressions/). An automated data analysis pipeline run in the Genialis platform consisted of the following: Sequence quality checks were performed on raw and trimmed reads with FastQC. Bbduk was used to trim adapters and filter out poor quality reads. Trimmed reads were then mapped to the STAR index (ENSEMBL 100) reference genome using the STAR ([93]) aligner. Gene expression levels were quantified with featureCounts ([94]), and differential gene expression analyses were performed with DESeq2 ([95]). […] Differential expression was determined with an FDR of less than 0.05 and mRNA FC of greater than 1.5 to identify hypoxia-induced genes and genes inhibited by 32-134D. Data used in this study have been deposited in the NCBI Gene Expression Omnibus database (GEO GSE195997).
Supplemental Figure 2. Effect of 32-134D on gene expression in Hep3B cells. (A-D) Hep3B cells were exposed to 20% O2 in the presence of vehicle (first bar; no fill) or 1% O2 in the presence of: vehicle (blue bar) or the indicated concentration of 32-134D (bars with red fill) or 33-063 (bars with green fill), or PT2385 (bars with brown fill) for 24 hours and the indicated mRNAs were quantified by reverse transcription and quantitative real-time PCR (qPCR). Data are presented as mean + SEM (n = 3). *p < 0.05 vs white; **p < 0.01 vs blue (ANOVA with Bonferroni post-test). […]
(G-H) Analysis of HIF-1a (G) and HIF-2a (H) […]
mRNA expression in Hep3B cells exposed to vehicle or 32-134D at 20% or 1% O2 for 24

## Brc1ccc2c(-c3csc(-c4c[nH]c5c(Br)cccc45)n3)c[nH]c2c1 [Compound 32-134D]
[1]
  increase in the ratio of effector T cells to TAMs: 3 fold
  percentage of regulatory T cells, G-MDSCs, and dendritic cells in tumors: not significantly affected
[1]; P < 0.05
  percentage of CD8+IFN-γ+ effector T cells, CD8+CD44+CD69+ activated T cells, and NK1.1+CD3–CD314+ activated NK cells in tumors: significantly increased
  percentage of intratumoral CD11b+F4/80+ TAMs and CD11b+Ly6C+ M-MDSCs: decreased percentage
[2]; Hep3B cells, 1% O2, 24 hours
  hypoxia-induced ANGPTL4, VEGFA, NDRG1 and EPO mRNA expression: significantly inhibited
  hypoxia-induced CA9 mRNA expression (activated by HIF-1 only): significantly inhibited
[2]; Hep3B, 24 hours
  HIF-1α or HIF-2α mRNA expression: no effect
